According to patent US11236046B2, “Substituted heterocyclic sulfonamide compounds useful as TRPA1 modulators” (Genentech, Inc., priority 2013, dated 2022):

Target: human TRPA1 (Homo sapiens (Human), UniProt O75762)
Assay: FLIPR Tetra calcium influx assay, block of cinnamaldehyde-induced calcium influx in CHO cells expressing TRPA1 (human)
Type: cell-based
Details: 20 min compound incubation, 75 uM cinnamaldehyde (~EC80), Hill coefficient fixed to 1.5, read-out: hTRPA1 AUC IC50
Outline: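 CHO cells loaded with calcium dye, preincubated with compounds 20 min at room temperature in HBSS/20 mM HEPES pH 7.4 with 0.02% BSA. Channels activated by ~EC80 cinnamaldehyde (75 uM human, 45 uM rat); block of calcium influx read on FLIPR Tetra, IC50 fitted with fixed Hill coefficient.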

human TRPA1, sequence (O75762 whole entry): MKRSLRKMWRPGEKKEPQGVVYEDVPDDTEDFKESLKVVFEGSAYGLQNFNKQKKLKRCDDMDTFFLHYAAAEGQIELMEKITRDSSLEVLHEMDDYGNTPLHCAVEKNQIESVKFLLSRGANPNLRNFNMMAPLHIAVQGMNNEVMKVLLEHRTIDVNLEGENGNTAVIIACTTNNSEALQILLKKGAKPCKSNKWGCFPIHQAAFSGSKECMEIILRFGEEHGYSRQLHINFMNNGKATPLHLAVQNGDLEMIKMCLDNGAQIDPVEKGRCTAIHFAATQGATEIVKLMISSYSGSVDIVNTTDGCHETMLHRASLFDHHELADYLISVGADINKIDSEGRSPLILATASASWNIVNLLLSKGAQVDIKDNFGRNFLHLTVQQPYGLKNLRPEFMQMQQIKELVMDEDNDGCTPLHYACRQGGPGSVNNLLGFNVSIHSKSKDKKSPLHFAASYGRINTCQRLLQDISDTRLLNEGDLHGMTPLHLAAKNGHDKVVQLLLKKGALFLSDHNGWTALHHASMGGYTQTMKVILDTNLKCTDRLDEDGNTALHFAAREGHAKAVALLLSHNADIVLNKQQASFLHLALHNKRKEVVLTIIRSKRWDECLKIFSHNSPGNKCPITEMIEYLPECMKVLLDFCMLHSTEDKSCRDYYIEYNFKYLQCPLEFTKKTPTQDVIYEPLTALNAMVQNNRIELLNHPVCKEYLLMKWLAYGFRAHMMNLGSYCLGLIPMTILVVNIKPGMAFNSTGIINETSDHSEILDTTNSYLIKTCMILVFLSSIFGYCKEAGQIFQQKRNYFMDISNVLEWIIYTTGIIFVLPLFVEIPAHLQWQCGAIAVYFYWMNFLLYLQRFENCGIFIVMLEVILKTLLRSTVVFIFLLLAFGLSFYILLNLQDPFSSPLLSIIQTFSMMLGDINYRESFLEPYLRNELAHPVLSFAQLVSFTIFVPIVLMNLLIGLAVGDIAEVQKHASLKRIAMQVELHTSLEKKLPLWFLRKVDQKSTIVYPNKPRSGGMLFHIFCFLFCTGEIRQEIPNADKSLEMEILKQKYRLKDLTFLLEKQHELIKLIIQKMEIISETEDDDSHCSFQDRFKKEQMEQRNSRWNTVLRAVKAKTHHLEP

Row | Structure (SMILES) | IC50 [nM]
1 | N#Cc1ccc(-c2cnc(C(F)(F)F)nc2)cc1CNC(=O)[C@@H]1[C@@H](F)CCN1S(=O)(=O)c1ccc(F)cc1 [Example 38, (2R,3S)—N-([2-cyano-5-[2-(trifluoromethyl)pyrimidin-5-yl]phenyl]methyl)-3-fluoro-1-[(4-fluorobenzene)sulfonyl]pyrrolidine-2-carboxamide] | 14
2 | O=C(NCc1cc(-c2ccc(C(F)F)c(F)c2)ncn1)[C@@H]1C[C@@H](F)CN1S(=O)(=O)c1ccc(F)cc1 [Example 59, (2S,4R)—N-[[6-[4-(difluoromethyl)-3-fluoro-phenyl]pyrimidin-4-yl]methyl]-4-fluoro-1-(4-fluorophenyl)sulfonyl-pyrrolidine-2-carboxamide] | 29
3 | O=C(NCc1cc(-c2ccc(C(F)(F)F)c(F)c2)ncn1)[C@@H]1[C@@H](F)CCN1S(=O)(=O)c1ccc(F)cc1 [Example 93, (2R,3S)-3-fluoro-N-((6-(3-fluoro-4-(trifluoromethyl)phenyl)pyrimidin-4-yl)methyl)-1-(4-fluorophenylsulfonyl)pyrrolidine-2-carboxamide] | 14
4 | O=C(NCc1cc(-c2ccc3c(c2)OC(F)(F)O3)ncn1)[C@@H]1C[C@@H](F)CN1S(=O)(=O)c1ccc(F)cc1 [Example 92, (2S,4R)—N-[[6-(2,2-difluoro-2H-1,3-benzodioxol-5-yl)pyrimidin-4-yl]methyl]-4-fluoro-1-[(4-fluorobenzene)sulfonyl]pyrrolidine-2-carboxamide] | 87
5 | O=C(NCc1cc(Cl)nc(-c2ccc(C(F)F)nc2)c1)[C@@H]1C[C@@H](F)CN1S(=O)(=O)c1ccc(F)cc1 [Example 60, (2S,4R)—N-[[2-chloro-6-[6-(difluoromethyl)-3-pyridyl]-4-pyridyl]methyl]-4-fluoro-1-(4-fluorophenyl)sulfonyl-pyrrolidine-2-carboxamide] | 55
6 | COc1nn(-c2cnc(C(F)(F)F)nc2)cc1CNC(=O)[C@@H]1C[C@@H](F)CN1S(=O)(=O)c1ccc(F)cc1 [Example 132, (2S,4R)-4-fluoro-1-[(4-fluorobenzene)sulfonyl]-N-([3-methoxy-1-[2-(trifluoromethyl)pyrimidin-5-yl]-1H-pyrazol-4-yl]methyl)pyrrolidine-2-carboxamide] | 126
7 | COc1cnc(CNC(=O)[C@]2(C)C[C@@H](F)CN2S(=O)(=O)c2ccc(F)cc2)cc1-c1ccc(C(F)(F)F)nc1 [Example 109, (2S,4R)-4-fluoro-1-(4-fluorophenyl)sulfonyl-N-[[5-methoxy-4-[6-(trifluoromethyl)-3-pyridyl]-2-pyridyl]methyl]-2-methyl-pyrrolidine-2-carboxamide] | 164
8 | O=C(NCc1cn(-c2ccc(C(F)(F)F)cc2)nc1Cl)[C@@H]1C[C@@H](F)CN1S(=O)(=O)c1ccc(F)cc1 [Example 137, (2S,4R)—N-([3-chloro-1-[4-(trifluoromethyl)phenyl]-1H-pyrazol-4-yl]methyl)-4-fluoro-1-[(4-fluorobenzene)sulfonyl]pyrrolidine-2-carboxamide] | 78
9 | O=C(NCc1cc(-c2ccc(OC(F)(F)F)c(F)c2)ncn1)[C@@H]1C[C@@H](F)CN1S(=O)(=O)c1ccc(F)cc1 [Example 104, (2S,4R)-4-fluoro-N-([6-[3-fluoro-4-(trifluoromethoxy)phenyl]pyrimidin-4-yl]methyl)-1-[(4-fluorobenzene)sulfonyl]pyrrolidine-2-carboxamide] | 72
10 | O=C(NCc1cn(-c2ccc(C(F)(F)F)nc2)nc1C1CC1)[C@@H]1C[C@@H](F)CN1S(=O)(=O)c1ccc(F)cc1 [Example 151, (2S,4R)—N-([3-cyclopropyl-1-[6-(trifluoromethyl)pyridin-3-yl]-1H-pyrazol-4-yl]methyl)-4-fluoro-1-[(4-fluorobenzene)sulfonyl]pyrrolidine-2-carboxamide] | 161
11 | O=C(NCc1cc(-c2ccc(SC(F)(F)F)cc2)ncn1)[C@@H]1C[C@@H](F)CN1S(=O)(=O)c1ccc(F)cc1 [Example 147, (2S,4R)-4-fluoro-1-(4-fluorophenylsulfonyl)-N-((6-(4-(trifluoromethylthio)phenyl)pyrimidin-4-yl)methyl)pyrrolidine-2-carboxamide] | 49
12 | O=C(NCc1cc(F)cc(-n2cc(C(F)(F)F)cn2)c1)[C@@H]1C[C@@H](F)CN1S(=O)(=O)c1ccc(F)cc1 [Example 86, (2S,4R)-4-fluoro-1-(4-fluorophenyl)sulfonyl-N-[[3-fluoro-5-[4-(trifluoromethyl)pyrazol-1-yl]phenyl]methyl]pyrrolidine-2-carboxamide] | 119
13 | N#Cc1cnc(-c2ccc(C(F)(F)F)nc2)cc1CNC(=O)[C@@H]1C[C@@H](F)CN1S(=O)(=O)c1ccc(F)cc1 [Example 79, (2S,4R)—N-([5-cyano-2-[6-(trifluoromethyl)pyridin-3-yl]pyridin-4-yl]methyl)-4-fluoro-1-[(4-fluorobenzene)sulfonyl]pyrrolidine-2-carboxamide] | 9
14 | O=C(NCc1cc(-c2ccc(C(F)(F)F)cc2)ncn1)[C@@H]1C[C@@H](F)CN1S(=O)(=O)c1ccc(F)c(F)c1 [Example 150, (2S,4R)-1-(3,4-difluorophenylsulfonyl)-4-fluoro-N-((6-(4-(trifluoromethyl)phenyl)pyrimidin-4-yl)methyl)pyrrolidine-2-carboxamide] | 46
15 | C[C@@]1(C(=O)NCc2cc(-c3ccc(C(F)(F)F)cc3)ncn2)C[C@@H](F)CN1S(=O)(=O)c1ccc(F)cc1 (single isomer, unassigned) [Example 138] | 25
16 | O=C(NCc1cc(N2CCC3(CC2)CC3(F)F)c(F)cn1)[C@@H]1C[C@@H](F)CN1S(=O)(=O)c1ccc(F)cc1 [Example 69, (2S,4R)—N-[[4-(2,2-difluoro-6-azaspiro[2.5]octan-6-yl)-5-fluoro-2-pyridyl]methyl]-4-fluoro-1-(4-fluorophenyl)sulfonyl-pyrrolidine-2-carboxamide] | 14
17 | O=C(NCc1cc(F)cc(-c2cnc(C(F)(F)F)cn2)c1)[C@@H]1C[C@@H](F)CN1S(=O)(=O)c1ccc(F)cc1 [Example 122, (2S,4R)-4-fluoro-1-(4-fluorophenyl)sulfonyl-N-[[3-fluoro-5-[5-(trifluoromethyl)pyrazin-2-yl]phenyl]methyl]pyrrolidine-2-carboxamide] | 14
18 | O=C(NCc1cc(-c2ccc(C(F)F)cc2)ncn1)[C@@H]1C[C@@H](F)CN1S(=O)(=O)c1ccc(F)cc1 [Example 63, (2S,4R)—N-[[6-[4-(difluoromethyl)phenyl]pyrimidin-4-yl]methyl]-4-fluoro-1-(4-fluorophenyl)sulfonyl-pyrrolidine-2-carboxamide] | 318

Second part, the compound after the results:

Row | IC50 [nM] | Structure (SMILES)
19 | 381 | CC1(C)CC[C@@H](C(=O)NCc2cc(-c3ccc(C(F)(F)F)nc3)ncn2)N1S(=O)(=O)c1ccc(F)cc1 [Example 194, (2S)-1-(4-fluorophenyl)sulfonyl-5,5-dimethyl-N-[[6-[6-(trifluoromethyl)-3-pyridyl]pyrimidin-4-yl]methyl]pyrrolidine-2-carboxamide]
20 | 211 | O=C(NCc1cc(-c2cnc(C(F)(F)F)nc2)cnc1F)[C@@H]1C[C@@H](F)CN1S(=O)(=O)c1ccc(F)cc1 [Example 171, (2S,4R)-4-fluoro-1-(4-fluorophenyl)sulfonyl-N-[[2-fluoro-5-[2-(trifluoromethyl)pyrimidin-5-yl]-3-pyridyl]methyl]pyrrolidine-2-carboxamide]
21 | 795 | O=C(NCc1cncc(-c2cnc(C(F)(F)F)nc2)c1)[C@@H]1C[C@@H](F)CN1S(=O)(=O)c1ccc(F)cc1 [Example 195, (2S,4R)-4-fluoro-1-(4-fluorophenyl)sulfonyl-N-[[5-[2-(trifluoromethyl)pyrimidin-5-yl]-3-pyridyl]methyl]pyrrolidine-2-carboxamide]
22 | 62 | CNc1nc(C(F)(F)F)ccc1-c1cc(CNC(=O)[C@@H]2C[C@@H](F)CN2S(=O)(=O)c2ccc(F)cc2)ccn1 [Example 179, (2S,4R)-4-fluoro-1-(4-fluorophenyl)sulfonyl-N-[[2-[2-(methylamino)-6-(trifluoromethyl)-3-pyridyl]-4-pyridyl]methyl]pyrrolidine-2-carboxamide]
23 | 10 | O=C(NCc1cc(-c2cnc(C(F)(F)F)nc2)ncc1Cl)[C@@H]1C[C@@H](F)CN1S(=O)(=O)c1ccc(F)cc1 [Example 184, (2S,4R)—N-([5-chloro-2-[2-(trifluoromethyl)pyrimidin-5-yl]pyridin-4-yl]methyl)-4-fluoro-1-[(4-fluorobenzene)sulfonyl]pyrrolidine-2-carboxamide]
24 | 8 | N#Cc1ccc(-c2cnc(C(F)(F)F)nc2)cc1CNC(=O)[C@@H]1[C@H]2C[C@H]2CN1S(=O)(=O)c1ccc(F)cc1 [Example 176, (1S,2S,5R)—N-(2-cyano-5-(2-(trifluoromethyl)pyrimidin-5-yl)benzyl)-3-((4-fluorophenyl)sulfonyl)-3-azabicyclo[3.1.0]hexane-2-carboxamide]
25 | 18 | O=C(NCc1ccnc(-c2ccc(OC(F)(F)F)cc2)c1)[C@@H]1C[C@@H](F)CN1S(=O)(=O)c1ccc(F)cc1 [Example 159, (2S,4R)-4-fluoro-1-(4-fluorophenyl)sulfonyl-N-[[2-[4-(trifluoromethoxy)phenyl]-4-pyridyl]methyl]pyrrolidine-2-carboxamide]
26 | 268 | O=C(NCc1cc(-c2ccc(C(F)(F)F)nc2)ncn1)[C@@H]1CCN1S(=O)(=O)c1ccc(F)cc1 [Example 201, (S)-1-(4-fluorophenylsulfonyl)-N-((6-(6-(trifluoromethyl)pyridin-3-yl)pyrimidin-4-yl)methyl)azetidine-2-carboxamide]
27 | 8 | COc1cc(CNC(=O)[C@@H]2C[C@@H](F)CN2S(=O)(=O)c2ccc(F)cc2)cc(-c2cnc(C(F)(F)F)nc2)n1 [Example 188, (2S,4R)-4-fluoro-1-(4-fluorophenyl)sulfonyl-N-[[2-methoxy-6-[2-(trifluoromethyl)pyrimidin-5-yl]-4-pyridyl]methyl]pyrrolidine-2-carboxamide]
